Measured values: patent US11857601B2, “Pharmaceutical composition for cancer treatment comprising fusion protein including IL-2 protein and CD80 protein and anticancer drug” (GI INNOVATION, INC., priority 2020, dated 2024)

Legend:
[1] = system: immune cells in cancer tissues; assay: Immune cell analysis in LL/2 cancer tissue (FACS); format: in vivo, C57BL/6 mice
Experimental: The mice of each group in Experimental Example 16.1 were sacrificed when the tumor volume reached an average of 200 mm^3, and cancer tissues were collected.
Thereafter, FACS analysis was performed in the same manner as Experimental Example 16.2. to analyze immune cells in the cancer tissues.

[2] = system: MDA-MB-231 cells; assay: GI101 and Keytruda in humanized mice xenotransplanted with MDA-MB-231; format: in vivo, human
Experimental: Fetal bovine serum (FBS, 16000-044, Thermofisher scientific, USA), penicillin-streptomycin; 10,000 units/ml penicillin and 10,000 μg/ml streptomycin (15140122, Thermofisher scientific, USA); and RPMI1640 (A1049101, Thermofisher scientific, USA) per 100 ml were mixed and used.
The cells were suspended using Trypsin-EDTA (Cat. 25200-072, Thermofisher scientific, USA). The suspended cells were collected by centrifugation (125×g, 5 minutes) using a centrifuge, transferred to a new medium and a new flask, and passage cultured. The cultured cells were put to a centrifugation tube on the day of cell line transplantation and then collected. […] 8-week-old female NSGb2m (NOD.Cg-B2m^tm1UncPrkdc^scidIl2rg^tm1Wjl/SzJ) mice were purchased from Joongang Bio (Korea) and used for the test. The body weight was measured the next day after the end of the quarantine and acclimation period, and then the human-derived PBMC cell suspension (5×10^6 cells/0.2 ml) prepared for healthy animals was filled into a disposable syringe and administered to the caudal vein of the animals. General symptoms were observed once a day after cell transplantation.
A certain period of time after the cell transplantation, the tumor volume was measured for animals with no abnormalities in the health condition of the animals, and 32 subjects were selected so that the average of each group reached 40 to 80 mm^3. The selected animals were grouped into a total of 4 groups as evenly as possible based on tumor volume and body weight, each group including 8 animals.
General symptoms such as appearance, behavior, and excrement were observed once a day during the observation period, and deceased animals were identified. Body weight was measured on the day of cell line transplantation, twice a week, and on the day of animal sacrifice. The major axis (maximum length, L) and minor axis (perpendicular width, W) of the tumor were measured using a caliper (Digital caliper, mitutoyo, Japan) three times a week during the observation period, and the tumor volume (TV) was calculated by substituting them into the following equations.
(§1) The tumor volume before administration of each subject was set as the value measured at the time of grouping.

[3] = system: CT-26 cancer cell line; assay: mGI101 in mice transplanted with CT-26 (Exp. Ex. 15)
Experimental: BALB/c mice (female, 7-week-old) purchased from Orient Bio were subjected to an acclimation period of 7 days. Then, 5×10^6 cells of CT-26 cancer cell line (ATCC, USA) were mixed with 0.05 ml of […] ™ matrix phenol red-free (BD), and allotransplantation of the mixture was performed by subcutaneous administration at 0.1 ml in the right dorsal region of the mice. A certain period of time after the cancer cell transplantation, the tumor volume was measured and subjects that reached about 28 mm^3 were selected, and then the selected mice were grouped evenly based on tumor size and body weight, each group including 10 mice. Thereafter, using a disposable syringe (31G, 1 ml), hIgG4 was administered at a dose of 6 mg/kg to a negative control. For experimental groups, mGI101 at a dose of 3 mg/kg, 6 mg/kg, or 12 mg/kg was administered intravenously thereto. A total of three administrations were given once every three days after the first administration. The tumor size was measured daily.

[4] = system: BT-474 cells; assay: mGI-101 and Herceptin in BT-474 xenotransplanted tumor model; format: in vivo, human
Description: BT-474 cells were purchased from ATCC (USA) and cultured in RPMI1640 medium (Welgene) containing 10% FBS (Gibco) and 1% antibiotic/antifungal agent (Gibco).
In order to establish a xenotransplanted tumor model for BT-474 cells, it was subcutaneously injected into the left flank of BALB/c nu/nu female mice (7-week-old) by pulling the leather skin of the mice to make a space using a pellet transplant trochar (MP-182, Innovative Research of America, USA) so that it was located under the skin of the left flank.
A certain period of time after cell inoculation of the tumor grafts of the mice, the tumor volume was measured for animals with no abnormalities in the health condition of the animals, and the subjects were selected so that the average of each group reached less than 60-120 mm^3, and the selected animals were assigned as evenly as possible based on tumor volume and body weight, each group including 10 animals.
Clinical symptoms such as a disease and a behavioral change were observed once a day during the test period, and deceased animals were identified, and the mice were sacrificed when the tumor size reached a size of 4,000 mm^3.
as §1
All statistical calculations were performed using Prism 8.0 (Graph Pad Software Inc, USA). The comparison of tumor volume measurements was made through two-way analysis of variance followed by Tukey's multiple comparison test. A p value of less than 0.05 was considered significant.

[5] = system: MC38; assay: mGI101 and anti-PD-1 antibody in MC38 allotransplanted tumor model; format: in vivo, C57BL/6 mice
Experimental: Rodent-derived colorectal cancer cells, MC38, were purchased from Kerafast (USA) and used for the test. MC38 cells were cultured in RPMI1640 medium (Gibco) containing 10% fetal bovine serum (Gibco) and 1% antibiotic/antifungal agent (Gibco). The cultured cells were harvested using trypsin and then suspended in PBS. In order to establish an allotransplanted tumor model, 1×10^6 MC38 cells were subcutaneously injected into the right flank of C57BL/6 female mice (7-week-old).
The mice were randomly assigned based on tumor volume (30 mm^3), each group including 5 mice. The tumor grafts were identified about day 2 after cell inoculation.
Clinical symptoms such as a disease and a behavioral change were observed once a day during the test period, and deceased animals were identified. At the end of the test period, the animals were sacrificed. The size of the MC38 solid cancer was measured using a tumor 3D scanner (TM900, Peria, Belgium). […] The anti-tumor efficacy was evaluated as compared with the vehicle control. All statistical calculations were performed using Prism 8.0 (Graph Pad Software Inc, USA). The comparison of tumor volume measurements was made through one-way analysis of variance (at the end of this test) followed by Bonferroni's multiple comparison test. A p value of less than 0.05 was considered significant.

[6] = day 42 vs day 21 after tumor transplantation, 8 animals per group
[7] = BT-474, end of the test, 10 animals per group

| Substance | CD8+ T cells in cancer tissue ([1]; 0.1 mg/kg, compared with anti-PD-1 antibody alone) | level of CD86 expression in macrophages and dendritic cells ([1]; all GI101 groups) | level of expression of IFN-γ ([1]; all GI101 groups, vs negative control) | tumor growth ([2]; GI101 6 mg/kg, Keytruda 5 mg/kg, 4 administrations, compared with the control (hIgG4)) | number of mice with tumor growth inhibition rate of 30% or more [2, 6] | number of mice with tumor growth inhibition rate of 50% or more [2, 6] | number of mice with tumor growth inhibition rate of 80% or more [2, 6] | Tumor growth inhibition ([3]; 6 mg/kg and 12 mg/kg i.v., three administrations, vs negative control (hIgG4)) | survival rate ([3]; 6 mg/kg i.v., vs negative control) | number of mice with tumor growth inhibition rate of 30% or more [4, 7] | number of mice with tumor growth inhibition rate of 50% or more [4, 7] | number of mice with tumor growth inhibition rate of 80% or more [4, 7] | tumor size compared with the vehicle control ([4]; mGI-101 3 mg/kg i.v. QW: day 28, Herceptin 1 mg/kg i.p. QW: day 14, 18, 21, combination: day 14 to day 28) | anticancer effect / anti-tumor efficacy ([5]; 16 days, mGI101 6 mpk alone, anti-PD-1 5 mpk, combination mGI101 0.6 mpk + anti-PD-1 5 mpk, vs control) | individual tumor sizes ([5]; mGI101 6 mpk alone (compared with anti-PD-1 group), anti-PD-1 5 mpk, combination 0.6 mpk + 5 mpk) | health state of test animals after administration ([5]; mGI101 alone and in combination with anti-PD-1 antibody, i.p.) |
| --- | --- | --- | --- | --- | --- | --- | --- | --- | --- | --- | --- | --- | --- | --- | --- | --- |
| GI101: fusion protein: human CD80 fragment, Ig hinge, Fc domain, linker, IL-2 variant (2M) (R38A, F42A); SEQ ID NO: 9 | significant increase | increased level | significantly increased level | tumor growth inhibition | 5 mice | 5 mice | 2 mice | – | – | – | – | – | – | – | – | – |
| mGI101: fusion protein: mouse CD80, Ig hinge, Fc domain, linker, IL-2 variant (2M) (R38A, F42A); SEQ ID NO: 15 | – | – | – | – | – | – | – | significant tumor growth inhibition | significant improvement | 5 mice | 1 mice | no mouse | statistically significant reduction in tumor size | anticancer effect was also shown | more excellent tumor growth inhibitory effect | healthy state without signs of pathological abnormalities |
